Active and inactive are the calls of the source. No rule for the calls is given here.

The subject of this data set is CCRIS mutagenicity, Ames/micronucleus/aberration tests. Nature of the data set: CCRIS mutagenicity studies.
Setting [1] is: Test System: AMES SALMONELLA TYPHIMURIUM, Strain/Indicator: TA97, Metabolic Activation: NONE, Method: PREINCUBATION
The mark [2] stands for this setting: Test System: AMES SALMONELLA TYPHIMURIUM, Strain/Indicator: TA98, Metabolic Activation: NONE, Method: PREINCUBATION
Where [3] appears, read: Test System: AMES SALMONELLA TYPHIMURIUM, Strain/Indicator: TA1535, Metabolic Activation: NONE, Method: PREINCUBATION
[4] abbreviates: Test System: AMES SALMONELLA TYPHIMURIUM, Strain/Indicator: TA1537, Metabolic Activation: NONE, Method: PREINCUBATION
Where [5] appears, read: Test System: AMES SALMONELLA TYPHIMURIUM, Strain/Indicator: TA98, Metabolic Activation: HAMSTER, LIVER, S-9, AROCLOR 1254 (10%), Method: PREINCUBATION
Where [6] appears, read: Test System: AMES SALMONELLA TYPHIMURIUM, Strain/Indicator: TA98, Metabolic Activation: RAT, LIVER, S-9, AROCLOR 1254 (10%), Method: PREINCUBATION
Setting [7] is: Test System: AMES SALMONELLA TYPHIMURIUM, Strain/Indicator: TA100, Metabolic Activation: HAMSTER, LIVER, S-9, AROCLOR 1254 (10%), Method: PREINCUBATION
[8] abbreviates: Test System: AMES SALMONELLA TYPHIMURIUM, Strain/Indicator: TA100, Metabolic Activation: NONE, Method: PREINCUBATION
Where [9] appears, read: Test System: AMES SALMONELLA TYPHIMURIUM, Strain/Indicator: TA100, Metabolic Activation: RAT, LIVER, S-9, AROCLOR 1254 (10%), Method: PREINCUBATION
The mark [10] stands for this setting: Test System: AMES SALMONELLA TYPHIMURIUM, Strain/Indicator: TA1535, Metabolic Activation: HAMSTER, LIVER, S-9, AROCLOR 1254 (10%), Method: PREINCUBATION
[11] abbreviates: Test System: AMES SALMONELLA TYPHIMURIUM, Strain/Indicator: TA1535, Metabolic Activation: RAT, LIVER, S-9, AROCLOR 1254 (10%), Method: PREINCUBATION
The mark [12] stands for this setting: Test System: AMES SALMONELLA TYPHIMURIUM, Strain/Indicator: TA1537, Metabolic Activation: HAMSTER, LIVER, S-9, AROCLOR 1254 (10%), Method: PREINCUBATION
[13] abbreviates: Test System: AMES SALMONELLA TYPHIMURIUM, Strain/Indicator: TA1537, Metabolic Activation: RAT, LIVER, S-9, AROCLOR 1254 (10%), Method: PREINCUBATION

Turning to `O=C1C(Cl)=C(Cl)C(=O)c2ccccc21`, the mutagenic call reads like this: under setting [1], “inactive; negative”; (Test System: AMES SALMONELLA TYPHIMURIUM, Strain/Indicator: TA97, Metabolic Activation: RAT, LIVER, S-9, PHENOBARBITAL AND 5,6-BENZOFLAVONE, Method: PREINCUBATION) “active; positive”; under setting [2], “inactive; negative”; (Test System: AMES SALMONELLA TYPHIMURIUM, Strain/Indicator: TA98, Metabolic Activation: RAT LIVER S-9, PHENOBARBITAL AND BETA-NAPHTHOFLAVONE, Method: PREINCUBATION) “inactive; negative”; (Test System: AMES SALMONELLA TYPHIMURIUM, Strain/Indicator: TA98, Metabolic Activation: RAT, LIVER, S-9, PHENOBARBITAL AND 5,6-BENZOFLAVONE, Method: PREINCUBATION) “inactive; negative”; (Test System: AMES SALMONELLA TYPHIMURIUM, Strain/Indicator: TA100, Metabolic Activation: RAT LIVER S-9, PHENOBARBITAL AND BETA-NAPHTHOFLAVONE, Method: PREINCUBATION) “inactive; negative”. The mutagenic call (Test System: AMES SALMONELLA TYPHIMURIUM, Strain/Indicator: TA100, Metabolic Activation: RAT, LIVER, S-9, PHENOBARBITAL AND 5,6-BENZOFLAVONE, Method: PREINCUBATION) was “active; positive”; the mutagenic call (Test System: AMES SALMONELLA TYPHIMURIUM, Strain/Indicator: TA102, Metabolic Activation: NONE, Method: PREINCUBATION) is “active; positive”; the mutagenic call (Test System: AMES SALMONELLA TYPHIMURIUM, Strain/Indicator: TA102, Metabolic Activation: RAT, LIVER, S-9, PHENOBARBITAL AND 5,6-BENZOFLAVONE, Method: PREINCUBATION) was “active; positive”; the mutagenic call (Test System: AMES SALMONELLA TYPHIMURIUM, Strain/Indicator: TA104, Metabolic Activation: NONE, Method: PREINCUBATION) is “active; positive”; the mutagenic call (Test System: AMES SALMONELLA TYPHIMURIUM, Strain/Indicator: TA104, Metabolic Activation: RAT, LIVER, S-9, PHENOBARBITAL AND 5,6-BENZOFLAVONE, Method: PREINCUBATION) is “active; positive”; the mutagenic call under setting [3] is “inactive; negative”. Besides, the mutagenic call is, setting by setting: (Test System: AMES SALMONELLA TYPHIMURIUM, Strain/Indicator: TA1535, Metabolic Activation: RAT LIVER S-9, PHENOBARBITAL AND BETA-NAPHTHOFLAVONE, Method: PREINCUBATION) “inactive; negative”; (Test System: AMES SALMONELLA TYPHIMURIUM, Strain/Indicator: TA1535, Metabolic Activation: RAT, LIVER, S-9, PHENOBARBITAL AND 5,6-BENZOFLAVONE, Method: PREINCUBATION) “inactive; negative”; under setting [4], “inactive; negative”; (Test System: AMES SALMONELLA TYPHIMURIUM, Strain/Indicator: TA1537, Metabolic Activation: RAT LIVER S-9, PHENOBARBITAL AND BETA-NAPHTHOFLAVONE, Method: PREINCUBATION) “inactive; negative”; (Test System: AMES SALMONELLA TYPHIMURIUM, Strain/Indicator: TA1537, Metabolic Activation: RAT, LIVER, S-9, PHENOBARBITAL AND 5,6-BENZOFLAVONE, Method: PREINCUBATION) “inactive; negative”; (Test System: AMES SALMONELLA TYPHIMURIUM, Strain/Indicator: TA1538, Metabolic Activation: NONE, Method: PREINCUBATION) “inactive; negative”. For the same molecule, the mutagenic call (Test System: AMES SALMONELLA TYPHIMURIUM, Strain/Indicator: TA1538, Metabolic Activation: RAT LIVER S-9, PHENOBARBITAL AND BETA-NAPHTHOFLAVONE, Method: PREINCUBATION) was “inactive; negative”; the mutagenic call (Test System: AMES SALMONELLA TYPHIMURIUM, Strain/Indicator: TA1538, Metabolic Activation: RAT, LIVER, S-9, PHENOBARBITAL AND 5,6-BENZOFLAVONE, Method: PREINCUBATION) is “inactive; negative”; the mutagenic call (Test System: AMES SALMONELLA TYPHIMURIUM, Strain/Indicator: TA2637, Metabolic Activation: NONE, Method: PREINCUBATION) was “inactive; negative”; the mutagenic call (Test System: AMES SALMONELLA TYPHIMURIUM, Strain/Indicator: TA2637, Metabolic Activation: RAT, LIVER, S-9, PHENOBARBITAL AND 5,6-BENZOFLAVONE, Method: PREINCUBATION) is “active; positive”; the mutagenic call (Test System: E.COLI, Strain/Indicator: WP2UVRA, Metabolic Activation: NONE, Method: PREINCUBATION) is “inactive; negative”; the mutagenic call (Test System: E.COLI, Strain/Indicator: WP2UVRA, Metabolic Activation: RAT LIVER S-9, PHENOBARBITAL AND BETA-NAPHTHOFLAVONE, Method: PREINCUBATION) was “inactive; negative”.
In the case of `O[C@@H]1[C@@H]2O[C@@H]2C=C[C@H]1O`, the mutagenic call under setting [1] is “inactive; negative”, the mutagenic call under setting [2] was “inactive; negative” and the mutagenic call under setting [3] is “active; positive”.
For `[N-]=[N+]=CC(=O)NCC(=O)NN`, the mutagenic call is “active; positive” (Test System: AMES SALMONELLA TYPHIMURIUM, Strain/Indicator: TA1535, Metabolic Activation: NONE, Method: STANDARD PLATE) and “active; positive” (Test System: UDS RODENT CELLS, Strain/Indicator: THY INCORP (NON-S-PHASE), Metabolic Activation: NONE, Method: AUTORADIOGRAPHY).
As to `C=C(C)C(=O)OCCCCCCCCCC`, the mutagenic call is “inactive; negative” under setting [5]; “inactive; negative” under setting [2]; “inactive; negative” under setting [6]; “inactive; negative” under setting [7]; “inactive; negative” under setting [8]; “inactive; negative” under setting [9]. In addition, the mutagenic call is “inactive; negative” under setting [10]; “inactive; negative” under setting [3]; “inactive; negative” under setting [11]; “inactive; negative” under setting [12]; “inactive; negative” under setting [4]; “inactive; negative” under setting [13].
In the case of `O=[N+]([O-])c1cccc(CBr)c1`, the mutagenic call is “inactive; negative” under setting [2]; “inactive; negative” under setting [8]; “inactive; negative” (Test System: AMES SALMONELLA TYPHIMURIUM, Strain/Indicator: TA100, Metabolic Activation: RAT, LIVER, S-9, AROCLOR 1254, Method: PREINCUBATION).
As to `CC(=O)/C=C/c1ccco1`, the mutagenic call is “inactive; negative” under setting [5]; “inactive; negative” under setting [2]; “inactive; negative” under setting [6]; “inactive; negative” under setting [7]; “inactive; negative” under setting [8]; “inactive; negative” under setting [9]. Further, the mutagenic call by setting is: under setting [10], “inactive; negative”; under setting [3], “inactive; negative”; under setting [11], “inactive; negative”; under setting [12], “inactive; negative”; under setting [4], “inactive; negative”; under setting [13], “inactive; negative”.

The values above are taken from PubChem BioAssay AID1259407 (Chemical Carcinogenesis Research Information System (CCRIS), 2018).
